According to patent US20240199618A1, “NOVEL N-ACYL-[3-SUBSTITUTED]-[8-SUBSTITUTED]-5,6-DIHYDRO-[1,2,4]TRIAZOLO[4,3-a]PYRAZINES AS SELECTIVE NK-3 RECEPTOR ANTAGONISTS, PHARMACEUTICAL COMPOSITION, METHODS FOR USE IN NK-3 RECEPTOR-MEDIATED DISORDERS” (Ogeda SA, priority 2013, published 2024):
pKi: −log10 of the molar value.

Columns and labels:
plasma testosterone = assay: Plasma testosterone in gonad intact male rats; type: in vivo, rat; conditions: 3 mg/kg oral, vs vehicle, FIG. 1
Procedure: Effect of Compounds of the Invention on Plasma Testosterone in Gonad Intact Male Rats
The study was designed to evaluate the effect of compounds of the invention on testosterone circulating levels following oral administration at 3 mg/kg on SD gonad intact male rats.
Briefly the experimental methods used for this study were as follows:
Two groups of non-fasted rats (male, Sprague-Dawley, 200 to 225 g; n=4 rats/group) with jugular vein cannulation, were dosed via a single oral administration of compounds of the invention at 3 mg/kg. The control group was dosed with the vehicle. Compounds of the invention were prepared in a dose formulation of pyrogen-free water with 0.5% methylcellulose. Blood samples were collected via the catheter implanted in the jugular vein at pre-determined intervals using EDTA-3K as anti-coagulant. Samples were chilled and rapidly processed by centrifugation to obtain corresponding plasma samples. Testosterone hormone levels were determined by RIA performed on plasma samples collected for all the groups at 5 minutes before administration (basal time), and at 45, 90, 150, 300, 480 minutes and 24 hours after dosing.

[1] = test system: hot flashes in postmenopausal women; assay: Phase 2a clinical trial, menopausal hot flashes; type: in vivo, human
Procedure: Clinical Evaluation of compound n^o 5 for the Treatment of Menopausal Hot Flashes Objectives: The study objective is to evaluate the effect of compound n^o 5 on the severity and frequency of hot flashes in postmenopausal women. Design and Setting: The Phase 2a clinical trial was conducted in 80 patients, divided over 2 treatment groups of 40 patients each. […] The Phase 2a trial was double blind and randomized. This Phase 2a trial was conducted on healthy menopausal women (40-65 y) experiencing at least 49 moderate or severe hot flashes or night sweats over a period of 7 consecutive days in the screening period (maximum of 4 weeks). The study was conducted on an ambulatory basis where patients were asked to visit the clinical site on the first day of dosing and at weeks 4, 8, 12 during the treatment period with a follow-up visit 2-3 weeks after conclusion of dosing. Hot flashes were to be reported daily in the morning and the evening using an electronic diary tool. These reported events were used to calculate the Hot Flash Frequency and the Hot Flash Score. The weekly number of hot flashes was calculated in two ways: cumulatively for all severity grades, and cumulatively but leaving out the number of mild hot flashes. Hot Flash Frequencies were calculated for weeks 4 and 12. The Hot Flash Score (HFS) is a composite score combining both frequency and severity. This score is an accepted method to assess the overall severity of the hot flash burden and is calculated weekly. The score is a general measure of the number and severity of all hot flashes occurred during a given time period. The Hot Flash Score (based on severity and frequency) is calculated as follows: • day-score=(number of mild hot flashes/day×1)+(number of moderate hot flashes/day×2)+(number of severe hot flashes/day×3) • The weekly hot flash score is calculated: […] Higher scores indicate worse symptoms.

human NK-1 receptor = human NK-1 receptor (Homo sapiens (Human), UniProt P25103); assay: Selectivity assay: [3H] substance P binding, human NK-1 receptor; conditions: 2 nM [3H] substance P, CHO membranes; read-out: hNK-1 (Ki)
Chain of human NK-1 receptor (P25103 whole entry): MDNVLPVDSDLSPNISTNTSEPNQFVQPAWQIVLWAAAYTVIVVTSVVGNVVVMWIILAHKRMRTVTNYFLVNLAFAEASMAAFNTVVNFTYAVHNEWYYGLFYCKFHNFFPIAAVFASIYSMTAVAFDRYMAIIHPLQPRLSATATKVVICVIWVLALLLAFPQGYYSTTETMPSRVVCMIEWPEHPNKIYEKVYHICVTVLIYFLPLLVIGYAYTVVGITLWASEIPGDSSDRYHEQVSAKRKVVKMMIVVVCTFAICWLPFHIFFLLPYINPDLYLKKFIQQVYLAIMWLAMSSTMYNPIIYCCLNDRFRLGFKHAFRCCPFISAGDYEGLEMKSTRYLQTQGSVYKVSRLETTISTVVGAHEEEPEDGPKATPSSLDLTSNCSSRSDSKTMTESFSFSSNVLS
Summary of the method: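 Competition binding on membranes from CHO cells expressing human NK-1 receptor, using 2 nM [3H] substance P in 50 mM Tris/5 mM MnCl2/150 mM NaCl/0.1% BSA, pH 7.4, with increasing compound concentrations. Incubated 60 min at 25 °C; bound radioactivity measured after filtration.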

human NK-2 receptor = human NK-2 receptor (Homo sapiens (Human), UniProt P21452); assay: Selectivity assay: [125I]-Neurokinin A binding, human NK-2 receptor; conditions: 0.1 nM [125I]-Neurokinin A, CHO membranes; read-out: hNK-2 (Ki)
Chain of human NK-2 receptor (P21452 whole entry): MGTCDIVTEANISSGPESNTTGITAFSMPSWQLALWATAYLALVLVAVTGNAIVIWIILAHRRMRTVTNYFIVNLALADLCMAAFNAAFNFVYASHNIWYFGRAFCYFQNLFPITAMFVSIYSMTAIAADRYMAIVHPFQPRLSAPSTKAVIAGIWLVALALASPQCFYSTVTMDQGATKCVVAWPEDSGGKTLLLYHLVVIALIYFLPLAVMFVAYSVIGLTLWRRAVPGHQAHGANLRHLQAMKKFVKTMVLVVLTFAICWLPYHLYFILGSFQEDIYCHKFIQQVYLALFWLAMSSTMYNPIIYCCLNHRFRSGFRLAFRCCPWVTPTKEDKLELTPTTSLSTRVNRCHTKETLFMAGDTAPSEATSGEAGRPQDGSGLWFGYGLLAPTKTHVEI
Procedure: The affinity of compounds of the invention for the NK-2 receptor was evaluated in CHO recombinant cells which express the human NK-2 receptor. Membrane suspensions were prepared from these cells. […] Binding assays were performed in a 25 mM HEPES/1 mM CaCl2)/5 mM MgCl2/0.5% BSA/10 μg/ml saponin, at pH 7.4. […] The radioactivity retained on the filters was measured by using the TopCount-NXT reader (Packard).

[2] = test system: circulating levels of luteinizing hormone (LH); assay: Castrated male rat model, circulating luteinizing hormone (LH); type: in vivo; conditions: single oral dose less than or equal to 30 mg/kg, p<0.05
Procedure: Castrated Male Rat Model to Assess the Effect of Compound of Invention on Circulating Levels of Luteinizing Hormone (LH)
The effect of compounds of the invention to inhibit luteinizing hormone (LH) secretion is determined by the following biological studies.
In humans and rodents, castration is well-precedented to permit heightened, persistent GnRH signaling and consequent elevation of circulating LH. Thus, a castrated rat model is used to provide a broad index for measurement of LH inhibition as a marker of test compound inhibition of the GnRH signaling pathway.
Castrated adult male Sprague-Dawley (SD) rats (150-175 g,) were purchased from Janvier (St Berthevin, France). All animals were housed 2 per cage in a temperature-controlled room (22±2° C.) and 50±5% relative humidity with a 12 hour/12 hour light/dark cycles (lights off at […]). The animals were allowed 3 weeks of postoperative recovery prior to study. Animals were handled on a daily basis. Standard diet and tap water were provided ad libitum. Animal cage litters were changed once a week. On the study day, animals were acclimated to the procedure room for a period of one hour prior to the initiation of the experiment.
Compounds of the invention were formulated in 0.5% methyl cellulose.
After basal sampling (TO) a single dose of compounds of the invention or vehicle was administrated orally to rats. Blood samples were then collected at several time points post dosing (45, 90, 150, 300 and 420 minutes). Blood samples were obtained via tail vein bleed, drawn into EDTA-containing tubes and centrifuged immediately. Plasma samples were collected and stored in a −80° C. freezer until assayed. Serum LH levels were determined using radioimmunoassay kit from RIAZEN—Rat L H, Zentech (Liege, Belgium). Baseline was defined as the initial basal blood sample.

[3] = 90 mg BID, postmenopausal women
[4] = Baseline, 90 mg BID group, moderate and severe hot flashes

SMILES: Cc1nsc(-c2nnc3n2CCN(C(=O)c2ccc(F)cc2)[C@@H]3C)n1 [Compound 5, (R)-(4-fluorophenyl)(8-methyl-3-(3-methyl-1,2,4-thiadiazol-5-yl)-5,6-dihydro-[1,2,4]triazolo[4,3-a]pyrazin-7(8H)-yl)methanone]
- plasma testosterone level (plasma testosterone): significantly suppressed
- Frequency of hot flashes in comparison of placebo [1, 3]: significantly reduced
- Score of hot flashes in comparison of placebo [1, 3]: significantly reduced
- Hot Flash Score (mean) [1, 4]: 29.08
- Hot Flashes Frequency (mean) [1, 4]: 11.84
- Hot Flash Score (mean) ([1]; Week 4, 90 mg BID oral): 2.96
- Hot Flashes Frequency (mean) ([1]; Week 4, 90 mg BID oral): 1.35
- Hot Flash Score (mean) ([1]; Week 12, 90 mg BID oral): 1.70
- Hot Flashes Frequency (mean) ([1]; Week 12, 90 mg BID oral): 0.79
- pKi (human NK-1 receptor): < 4.52
- pKi (human NK-2 receptor): < 4.52
- circulating LH levels [2]: significantly suppressed
